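Results reflect a 48-hour exposure of cells in 96-well plates to compound at five concentrations. Definition used: TGI = concentration required for complete inhibition of growth.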
Columns and labels:
Experiment in all cases: DTP human tumour cell line panel, 48 h
[1] = tested on: UO-31 renal
[2] = tested on: SK-OV-3 ovarian
[3] = tested on: ACHN renal
[4] = tested on: IGROV1 ovarian
[5] = tested on: CAKI-1 renal
[6] = tested on: RPMI-8226 leukemia
[7] = tested on: HCC-2998 colon
[8] = tested on: SR leukemia
[9] = tested on: SK-MEL-28 melanoma
[10] = tested on: U251 CNS

Compound	TGI [1]	TGI [2]	TGI [3]	TGI [4]	TGI [5]	TGI [6]	TGI [7]	TGI [8]	TGI [9]	TGI [10]
Cn1c(=O)c2sc3cc4c(cc3c2c2ccccc21)sc1c(=O)n(C)c2ccccc2c14	> 100 µM	> 100 µM	54.8 µM	> 100 µM	> 100 µM	> 100 µM	> 100 µM	> 100 µM	> 100 µM	43.6 µM
O=C(NC/C=C/Br)NC1CCNc2ccccc21 (centres undefined)	62.6 µM	> 100 µM	> 100 µM	> 100 µM	> 100 µM	58.7 µM	59 µM	61.8 µM	> 100 µM	> 100 µM
CN(C)c1ccc(/C=C2\C[C@H]3[C@@H]4CCc5cc(O)ccc5[C@H]4CC[C@]3(C)C2=O)cc1	> 100 µM	> 100 µM	> 100 µM	> 100 µM	> 100 µM	> 100 µM	> 100 µM	> 100 µM	> 100 µM	> 100 µM
Nc1ccc(-c2nc3ccccc3s2)cc1	28.9 µM	> 100 µM	31.8 µM	48.7 µM	> 67.8 µM	61.1 µM	> 100 µM	62.2 µM	33 µM	31.9 µM
C=C1C(=O)O[C@H]2[C@H]([C@H](C)CCCC(C)=O)O[C@H]([C@@]3(C)CCC(=O)O3)C[C@@H]12	> 100 µM	> 100 µM	> 100 µM	> 100 µM	54.3 µM	> 100 µM	> 100 µM	> 100 µM	> 100 µM	> 100 µM
C=CCn1c(=O)c2ccccc2[n+]2c(-c3cccc([N+](=O)[O-])c3)csc12	> 100 µM	> 100 µM	> 100 µM	> 100 µM	> 100 µM	> 100 µM	> 100 µM	98.3 µM	> 100 µM	> 100 µM
Cc1cccc2c1C(=O)[C@@](C)([C@]1(C)Nc3cccc(C)c3C1=O)N2	> 100 µM	> 100 µM	> 100 µM	> 100 µM	> 100 µM	> 100 µM	> 100 µM	> 100 µM	> 100 µM	> 100 µM
N#Cc1c(C#N)c(-c2ccccc2)n(/N=C\c2ccccc2)c1N	81.8 µM	70.2 µM	> 100 µM	84.7 µM	> 100 µM	40.1 µM	89.9 µM	82.9 µM	–	47.4 µM
COc1cc(-c2[o+]c3cc(O)cc(OC4OC(CO)C(O)C(O)C4O)c3cc2OC2OC(CO)C(O)C(O)C2O)cc(OC)c1O (centres undefined)	> 100 µM	> 100 µM	> 100 µM	> 100 µM	> 100 µM	> 100 µM	> 100 µM	> 100 µM	> 100 µM	> 100 µM
COC(=O)C(C(=O)OC)C1CC(=O)c2c(Br)sc(Br)c21 (centres undefined)	29.5 µM	44 µM	26.6 µM	29.3 µM	21.1 µM	26.4 µM	27.4 µM	34.6 µM	34.2 µM	29.8 µM
O=C(NCc1cccnc1)C(=O)NCc1cccnc1	> 100 µM	> 100 µM	> 100 µM	> 100 µM	> 100 µM	> 100 µM	> 100 µM	> 100 µM	> 100 µM	> 100 µM

— PubChem BioAssay (NCI)
